Key:
CK1α = biological target: T1, CK1α (Homo sapiens, UniProt P48729+Q96SW2); assay: Western blot, degradation of substrate protein in hPBMCs; format: cell-based; details: Western blot, 24 hours of compound treatment, compounds tested at 50 nM and 500 nM (concentration for the table not stated)
T1 construct: effects of the compounds of the present disclosure on the expression of target proteins in cells; endogenous in cells; host or cells: human PBMCs (Milecell Biotechnologies)

IKZF1 = biological target: T2, IKZF1 (Homo sapiens, UniProt Q13422+Q96SW2); assay: as above; format: cell-based; details: Western blot, 24 hours of compound treatment, compounds tested at 50 nM and 500 nM (concentration for the table not stated)
T2 construct: effects of the compounds of the present disclosure on the expression of target proteins in cells; endogenous in cells; host or cells: human PBMCs (Milecell Biotechnologies)
T2 sequence (Q13422 whole entry): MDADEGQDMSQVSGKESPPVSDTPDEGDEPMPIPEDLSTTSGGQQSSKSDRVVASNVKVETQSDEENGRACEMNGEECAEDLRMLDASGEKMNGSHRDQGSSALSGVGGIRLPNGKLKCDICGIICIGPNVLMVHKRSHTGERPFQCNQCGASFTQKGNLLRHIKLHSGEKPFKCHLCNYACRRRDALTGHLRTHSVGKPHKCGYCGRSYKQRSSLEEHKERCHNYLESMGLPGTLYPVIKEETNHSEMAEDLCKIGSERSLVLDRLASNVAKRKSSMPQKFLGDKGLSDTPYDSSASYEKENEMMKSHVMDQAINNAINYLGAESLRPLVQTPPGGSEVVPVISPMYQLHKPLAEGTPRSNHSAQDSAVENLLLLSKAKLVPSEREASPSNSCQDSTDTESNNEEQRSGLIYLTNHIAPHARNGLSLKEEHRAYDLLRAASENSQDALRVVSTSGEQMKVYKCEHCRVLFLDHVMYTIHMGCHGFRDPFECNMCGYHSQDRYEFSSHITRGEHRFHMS
T2 sequence (Q96SW2 whole entry): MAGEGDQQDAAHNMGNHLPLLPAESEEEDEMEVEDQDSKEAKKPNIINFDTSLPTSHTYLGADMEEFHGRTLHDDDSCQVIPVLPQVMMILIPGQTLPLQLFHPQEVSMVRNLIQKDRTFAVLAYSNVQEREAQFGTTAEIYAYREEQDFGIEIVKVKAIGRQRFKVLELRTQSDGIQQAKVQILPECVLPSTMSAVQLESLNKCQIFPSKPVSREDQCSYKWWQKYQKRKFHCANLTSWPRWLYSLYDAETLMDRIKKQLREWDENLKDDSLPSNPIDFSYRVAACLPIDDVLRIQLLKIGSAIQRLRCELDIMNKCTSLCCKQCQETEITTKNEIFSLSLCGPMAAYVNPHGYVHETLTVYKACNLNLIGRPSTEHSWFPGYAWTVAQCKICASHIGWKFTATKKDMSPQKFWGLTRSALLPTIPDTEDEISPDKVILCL
T2 sequence (Q16531 whole entry partner): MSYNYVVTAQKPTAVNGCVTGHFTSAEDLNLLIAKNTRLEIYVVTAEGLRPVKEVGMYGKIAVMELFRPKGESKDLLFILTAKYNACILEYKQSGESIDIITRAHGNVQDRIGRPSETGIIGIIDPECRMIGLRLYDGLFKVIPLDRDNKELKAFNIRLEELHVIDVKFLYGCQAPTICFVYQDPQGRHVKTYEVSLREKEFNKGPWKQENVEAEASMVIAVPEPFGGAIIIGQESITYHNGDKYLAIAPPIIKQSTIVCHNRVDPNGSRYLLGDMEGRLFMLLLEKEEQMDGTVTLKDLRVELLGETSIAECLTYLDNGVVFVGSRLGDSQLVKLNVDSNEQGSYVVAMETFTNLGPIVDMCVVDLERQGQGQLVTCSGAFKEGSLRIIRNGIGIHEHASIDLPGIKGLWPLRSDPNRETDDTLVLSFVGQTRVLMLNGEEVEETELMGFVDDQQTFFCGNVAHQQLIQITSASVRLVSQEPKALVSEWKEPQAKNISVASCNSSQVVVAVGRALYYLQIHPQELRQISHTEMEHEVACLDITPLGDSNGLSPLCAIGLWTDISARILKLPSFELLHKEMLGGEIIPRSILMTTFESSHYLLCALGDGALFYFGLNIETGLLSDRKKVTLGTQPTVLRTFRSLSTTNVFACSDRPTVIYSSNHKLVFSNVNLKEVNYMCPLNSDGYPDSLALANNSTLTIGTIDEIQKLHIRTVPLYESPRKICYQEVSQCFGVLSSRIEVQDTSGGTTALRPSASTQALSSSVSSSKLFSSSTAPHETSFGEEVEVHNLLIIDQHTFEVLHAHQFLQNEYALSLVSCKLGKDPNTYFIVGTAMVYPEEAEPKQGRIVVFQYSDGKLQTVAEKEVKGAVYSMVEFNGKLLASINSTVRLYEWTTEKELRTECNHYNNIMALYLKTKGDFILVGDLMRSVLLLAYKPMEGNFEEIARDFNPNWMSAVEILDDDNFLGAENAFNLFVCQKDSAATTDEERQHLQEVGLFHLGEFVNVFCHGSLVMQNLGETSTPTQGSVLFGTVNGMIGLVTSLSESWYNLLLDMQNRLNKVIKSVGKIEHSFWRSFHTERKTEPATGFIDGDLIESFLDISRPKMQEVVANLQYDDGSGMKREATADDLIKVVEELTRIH

IKZF2 = biological target: T3, IKZF2 (Homo sapiens, UniProt Q96SW2+Q9UKS7); assay: as above; format: cell-based; details: Western blot, 24 hours of compound treatment, compounds tested at 50 nM and 500 nM (concentration for the table not stated)
T3 construct: effects of the compounds of the present disclosure on the expression of target proteins in cells; endogenous in cells; host or cells: human PBMCs (Milecell Biotechnologies)
T3 sequence (Q9UKS7 whole entry): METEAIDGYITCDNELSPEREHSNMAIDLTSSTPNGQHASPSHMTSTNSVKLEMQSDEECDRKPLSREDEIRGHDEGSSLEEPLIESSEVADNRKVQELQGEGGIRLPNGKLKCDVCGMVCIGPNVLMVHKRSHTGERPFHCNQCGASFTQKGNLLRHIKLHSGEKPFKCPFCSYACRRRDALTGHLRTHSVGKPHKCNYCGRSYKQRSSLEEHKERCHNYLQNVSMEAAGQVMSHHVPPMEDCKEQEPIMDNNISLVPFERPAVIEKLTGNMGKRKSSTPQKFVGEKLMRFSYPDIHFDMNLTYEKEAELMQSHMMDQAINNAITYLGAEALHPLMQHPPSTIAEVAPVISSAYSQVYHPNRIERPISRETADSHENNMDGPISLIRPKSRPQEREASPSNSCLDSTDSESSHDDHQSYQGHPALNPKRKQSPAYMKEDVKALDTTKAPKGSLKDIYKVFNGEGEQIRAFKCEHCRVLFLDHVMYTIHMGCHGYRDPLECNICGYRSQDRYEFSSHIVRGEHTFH
T3 sequence (Q96SW2 whole entry): as the sequence (Q96SW2 whole entry) above
T3 sequence (Q16531 whole entry partner): as the sequence (Q16531 whole entry partner) above

IKZF3 = biological target: T4, IKZF3 (Homo sapiens, UniProt Q96SW2+Q9UKT9); assay: as above; format: cell-based; details: Western blot, 24 hours of compound treatment, compounds tested at 50 nM and 500 nM (concentration for the table not stated)
T4 construct: effects of the compounds of the present disclosure on the expression of target proteins in cells; endogenous in cells; host or cells: human PBMCs (Milecell Biotechnologies)
T4 sequence (Q9UKT9 whole entry): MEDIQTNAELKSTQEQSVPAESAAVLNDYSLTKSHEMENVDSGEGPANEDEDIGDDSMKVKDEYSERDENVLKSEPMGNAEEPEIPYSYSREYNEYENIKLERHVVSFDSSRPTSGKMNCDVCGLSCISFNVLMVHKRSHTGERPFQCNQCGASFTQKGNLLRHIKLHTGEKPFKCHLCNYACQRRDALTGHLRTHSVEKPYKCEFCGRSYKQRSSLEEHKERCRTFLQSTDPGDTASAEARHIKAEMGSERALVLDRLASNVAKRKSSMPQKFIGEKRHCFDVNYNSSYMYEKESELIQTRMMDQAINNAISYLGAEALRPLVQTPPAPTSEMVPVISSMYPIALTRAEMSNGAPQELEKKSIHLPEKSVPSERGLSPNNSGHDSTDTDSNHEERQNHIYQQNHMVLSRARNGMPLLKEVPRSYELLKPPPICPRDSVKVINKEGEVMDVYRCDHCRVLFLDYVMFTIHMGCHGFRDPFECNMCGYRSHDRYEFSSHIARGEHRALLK
T4 sequence (Q96SW2 whole entry): as the sequence (Q96SW2 whole entry) above
T4 sequence (Q16531 whole entry partner): as the sequence (Q16531 whole entry partner) above

WEE1 = biological target: T5, WEE1 (Homo sapiens, UniProt P30291+Q96SW2); assay: as above; format: cell-based; details: Western blot, 24 hours of compound treatment, compounds tested at 50 nM and 500 nM (concentration for the table not stated)
T5 construct: effects of the compounds of the present disclosure on the expression of target proteins in cells; endogenous in cells; host or cells: human PBMCs (Milecell Biotechnologies)
T5 sequence (P30291 whole entry): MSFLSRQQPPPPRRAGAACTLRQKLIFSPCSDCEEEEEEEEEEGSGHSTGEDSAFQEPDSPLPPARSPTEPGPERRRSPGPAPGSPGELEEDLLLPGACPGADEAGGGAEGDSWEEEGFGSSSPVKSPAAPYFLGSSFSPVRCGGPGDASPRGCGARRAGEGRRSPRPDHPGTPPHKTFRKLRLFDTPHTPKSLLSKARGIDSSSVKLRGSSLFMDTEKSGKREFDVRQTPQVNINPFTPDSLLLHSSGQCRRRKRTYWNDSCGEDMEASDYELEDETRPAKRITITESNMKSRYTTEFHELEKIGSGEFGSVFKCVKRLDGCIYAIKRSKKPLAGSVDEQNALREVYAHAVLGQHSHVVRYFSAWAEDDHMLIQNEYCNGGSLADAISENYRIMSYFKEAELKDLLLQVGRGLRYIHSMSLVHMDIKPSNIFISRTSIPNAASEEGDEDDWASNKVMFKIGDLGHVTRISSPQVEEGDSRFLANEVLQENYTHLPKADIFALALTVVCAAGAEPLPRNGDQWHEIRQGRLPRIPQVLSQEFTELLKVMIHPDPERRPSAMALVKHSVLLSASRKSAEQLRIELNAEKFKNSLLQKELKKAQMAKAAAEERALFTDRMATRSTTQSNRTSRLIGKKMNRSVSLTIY
T5 sequence (Q96SW2 whole entry): as the sequence (Q96SW2 whole entry) above
T5 sequence (Q16531 whole entry partner): as the sequence (Q16531 whole entry partner) above

GSPT1 = assay: as above; format: cell-based, Human; details: Western blot, 24 hours of compound treatment, compounds tested at 50 nM and 500 nM (concentration for the table not stated)
[1] = biological target: T6, human Cereblon WT GST-tagged protein (Homo sapiens, UniProt Q96SW2); assay: CRBN-binding affinity, HTRF (CEREBLON BINDING kit); details: CRBN binding, HTRF, 3 hours at room temperature; read-out: HTRF IC50
T6 construct: purchased CISBIO 64BDCRBNPEH
T6 sequence (Q96SW2 whole entry): as the sequence (Q96SW2 whole entry) above

[2] = tested on: Human multiple myeloma cell (MM.1S); assay: Tumor cell proliferation inhibition (CellTiter-Meiluncell luminescent cell viability assay); details: Homo sapiens, MM1.S, 96 h; for IC50: read-out: Inhibitory activity (IC50, nM) on tumor cell proliferation, MM.1S
[3] = tested on: Human breast cancer cell (MCF-7); assay: as above; details: MCF7, 96 h; for IC50: read-out: Inhibitory activity (IC50, nM) on tumor cell proliferation, MCF7
[4] = tested on: Human T lymphocytic leukemia cell line: Jurkat; assay: as above; details: 96 h; for IC50: read-out: Inhibitory activity (IC50, nM) on tumor cell proliferation, Jurkat
Protocol: (§1) The tumor cells used herein were cultured in a cell culture medium listed in table 2 at 37°C in an incubator with 5% CO2. Prior to experimentation, all cell lines used were correctly identified by STR profiling, and tested negative for mycoplasma contamination using a mycoplasma detection kit through routine screenings.
(§2) The IC50 values of the compounds of the present disclosure (including the compounds in Table 1 and Examples) were determined using the CellTiter-Meiluncell Luminescent Cell Viability Assay Kit from Dalian Meilun Biotech Co., Ltd. The detailed procedure is as follows: Tumor cells were seeded in 96-well cell culture plates at the densities specified in Table 3. On the following day, the test compounds of the present disclosure were subjected to serial dilution. The dilution can be performed according to one of the following two methods: • (1) The first dilution method: The test compounds of the present disclosure (including the compounds in Table 1 and Examples) were subjected to 5-fold serial dilutions starting from a highest concentration of 2000 µM, resulting in a total of 9 concentrations from high to low (2000, 400, 80, 16, 3.2, 0.64, 0.128, 0.0256, 0.00512 µM). Subsequently, 0.5 µL of the test compound dilution was transferred into the 96-well plate containing the cells, with each well containing 100 µL of cell culture medium. […] Into the 96-well plate, the diluted test compounds and corresponding detection reagents were added, resulting in final test compound concentrations of 500 nM and 10 nM, respectively. The experimental procedure is described below using the diluted 2 µM test compound as an example.
(§3) 0.5 µL of the aforementioned diluted compound of the present disclosure (including the compounds in Table 1 and Examples) was added to the seeded cells in 100 µL of medium, yielding a final test compound concentration of 10 nM. After the cells were treated with the compounds of the present disclosure for a specified period, the cell viability assay reagent was added to the culture medium according to the kit's instructions to determine cell viability. […] All controls were treated using the same procedure as the compounds of the present disclosure. The growth inhibition curves for the compounds of the present disclosure were plotted using Prism GraphPad software, and the IC50 values were calculated therefrom.

[5] = tested on: Human non-small cell lung cancer cell line: NCI-H1975; assay: as above; details: NCI-H1975, 96 h, read-out: Inhibitory activity (IC50, nM) on tumor cell proliferation, H1975
Protocol: as §1, §2, §3

[6] = tested on: Human mantle cell lymphoma cell line: JEKO-1; assay: as above; details: JeKo-1, 96 h, read-out: Inhibitory activity (IC50, nM) on tumor cell proliferation, JEKO-1
Protocol: as §1, §2, §3

[7] = tested on: Human gastric cancer cell line: MGC803; assay: as above; details: MGC-803, read-out: Inhibitory activity (IC50, nM) on tumor cell proliferation, MGC803
Protocol: as §2, §3

[8] = tested on: Human multiple myeloma peripheral blood B lymphocyte cell (RPMI-8226); assay: as above; details: RPMI-8226, 96 h, read-out: Inhibition Rate at 500 nM (%)
[9] = tested on: Human acute T lymphocytic leukemia cell (Molt4); assay: as above; details: MOLT-4, 96 h
[10] = tested on: Human myeloid monocytic leukemia cell (MV-4-11); assay: as above; details: MV4-11, 96 h
[11] = tested on: Human T cell acute lymphoblastic leukemia cell (CCRF-CEM); assay: as above; details: 96 h
[12] = tested on: Human acute myeloid leukemia cell line: Kasumi-1; assay: as above; details: Kasumi 1, 96 h
Protocol: as §1, §2, §3

[13] = tested on: Human monocytic leukemia cell line: THP-1; assay: as above; details: THP-1, 96 h
Protocol: as §1, §2, §3

[14] = tested on: Human colon cancer cell line: SW620; assay: as above; details: SW-620, 96 h
Protocol: as §1, §2, §3

[15] = tested on: Human malignant melanoma cell line: A375; assay: as above; details: A-375, 96 h
Protocol: as §1, §2, §3

[16] = read-out: Inhibition Rate at 10 nM (%)
[17] = read-out: Inhibition Rate at 500 nM (%)

T1 sequence (P48729 whole entry): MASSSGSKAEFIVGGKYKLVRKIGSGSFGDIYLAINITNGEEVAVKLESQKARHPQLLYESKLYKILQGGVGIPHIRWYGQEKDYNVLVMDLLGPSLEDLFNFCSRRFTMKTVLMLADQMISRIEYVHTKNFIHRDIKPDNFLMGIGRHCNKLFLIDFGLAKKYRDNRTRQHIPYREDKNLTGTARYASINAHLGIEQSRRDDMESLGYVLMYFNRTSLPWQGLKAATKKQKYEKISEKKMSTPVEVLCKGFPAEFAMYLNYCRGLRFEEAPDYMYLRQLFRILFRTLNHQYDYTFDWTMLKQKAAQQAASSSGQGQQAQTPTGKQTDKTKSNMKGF
T1 sequence (Q96SW2 whole entry): as the sequence (Q96SW2 whole entry) above
T1 sequence (Q16531 whole entry partner): as the sequence (Q16531 whole entry partner) above

| Structure (SMILES) | CK1α substrate protein remaining % (CK1α) | IKZF 1 substrate protein remaining % (IKZF1) | IKZF2 substrate protein remaining % (IKZF2) | IKZF3 substrate protein remaining % (IKZF3) | Wee1 substrate protein remaining % (WEE1) | GSPT1 substrate protein remaining % (GSPT1) | IC50 [1] [nM] | IC50 [2] [nM] | IC50 [3] [nM] | IC50 [4] [nM] | IC50 [5] [nM] | IC50 [6] [nM] | IC50 [7] [nM] | other results |
| --- | --- | --- | --- | --- | --- | --- | --- | --- | --- | --- | --- | --- | --- | --- |
| Cc1cscc1C1=CCN(Cc2ccc3c(c2)CN(C2CCC(=O)NC2=O)C3=S)CC1 (stereo not shown) [GT-05145, 3-(5-((4-(4-methylthiophen-3-yl)-3,6-dihydropyridin-1(2H)-yl)methyl)-1-thioxoisoindolin-2-yl)piperidine-2,6-dione] | A (0% ≤ substrate protein remaining % ≤ 80%) | A (0% ≤ substrate protein remaining % ≤ 80%) | A (0% ≤ substrate protein remaining % ≤ 80%) | A (0% ≤ substrate protein remaining % ≤ 80%) | A (0% ≤ substrate protein remaining % ≤ 80%) | A (0% ≤ substrate protein remaining % ≤ 80%) | < 100 | < 5 | 10 to 50 | < 5 | 5 to 10 | < 5 | 10 to 50 |  |
| O=C1CCC(N2Cc3cc(CN4CC=C(c5cccc(Cl)c5Cl)CC4)ccc3C2=S)C(=O)N1 (stereo not shown) [GT-05149, 3-(5-((4-(2,3-dichlorophenyl)-3,6-dihydropyridin-1(2H)-yl)methyl)-1-thioxoisoindolin-2-yl)piperidine-2,6-dione] | B (80%< substrate protein remaining %≤ 100%) | A (0% ≤ substrate protein remaining % ≤ 80%) | A (0% ≤ substrate protein remaining % ≤ 80%) | A (0% ≤ substrate protein remaining % ≤ 80%) | A (0% ≤ substrate protein remaining % ≤ 80%) | A (0% ≤ substrate protein remaining % ≤ 80%) | 100 to 500 | < 5 | 10 to 50 | 5 to 10 | 10 to 50 | 5 to 10 | 10 to 50 |  |
| O=C1CCC(N2Cc3cc(CN4CC=C(c5ccco5)CC4)ccc3C2=S)C(=O)N1 (stereo not shown) [GT-05147, 3-(5-((4-(furan-2-yl)-3,6-dihydropyridin-1(2H)-yl)methyl)-1-thioxoisoindolin-2-yl)piperidine-2,6-dione] | B (80%< substrate protein remaining %≤ 100%) | A (0% ≤ substrate protein remaining % ≤ 80%) | A (0% ≤ substrate protein remaining % ≤ 80%) | A (0% ≤ substrate protein remaining % ≤ 80%) | A (0% ≤ substrate protein remaining % ≤ 80%) | A (0% ≤ substrate protein remaining % ≤ 80%) | < 100 | 10 to 50 |  | 100 to 500 |  | 100 to 500 |  |  |
| O=C1CCC(N2Cc3cc(CN4CCC(c5cccc(Cl)c5Cl)CC4)ccc3C2=S)C(=O)N1 (stereo not shown) [GT-05150, 3-(5-((4-(2,3-dichlorophenyl)piperidin-1-yl)methyl)-1-thioxoisoindolin-2-yl)piperidine-2,6-dione] | B (80%< substrate protein remaining %≤ 100%) | A (0% ≤ substrate protein remaining % ≤ 80%) | A (0% ≤ substrate protein remaining % ≤ 80%) | B (80%< substrate protein remaining %≤ 100%) | A (0% ≤ substrate protein remaining % ≤ 80%) | A (0% ≤ substrate protein remaining % ≤ 80%) | 500 to 1000 | 5 to 10 | 100 to 500 | 10 to 50 | 50 to 100 | 50 to 100 | 100 to 500 |  |
| O=C1CCC(N2Cc3cc(CN4CCN(C(c5ccccc5)c5ccccc5)CC4)ccc3C2=S)C(=O)N1 (stereo not shown) [GT-05104, 3-(5-((4-benzhydrylpiperazin-1-yl)methyl)-1-thioxoisoindolin-2-yl)piperidine-2,6-dione] | B (80%< substrate protein remaining %≤ 100%) | B (80%< substrate protein remaining %≤ 100%) | B (80%< substrate protein remaining %≤ 100%) | B (80%< substrate protein remaining %≤ 100%) | A (0% ≤ substrate protein remaining % ≤ 80%) | A (0% ≤ substrate protein remaining % ≤ 80%) | 500 to 1000 | < 5 |  | 100 to 500 | 100 to 500 | 100 to 500 | 50 to 100 |  |
| Nc1cccc2c1CN(C1CCC(=O)NC1=O)C2=O (stereo not shown) [lenalidomide, reference compound] |  |  |  |  |  |  |  |  |  |  |  |  |  | inhibition at 0.01 µM [2, 16]: 10 to 20%; inhibition at 0.5 µM [2, 17]: 30 to 40%; inhibition at 0.5 µM [8]: 10 to 20%; inhibition at 0.01 µM [9, 16]: 0 to 5%; inhibition at 0.5 µM [9, 17]: 0 to 5%; inhibition at 0.01 µM [10, 16]: 10 to 18%; inhibition at 0.5 µM [10, 17]: 10 to 18%; inhibition at 0.01 µM [3, 16]: 0 to 5%; inhibition at 0.01 µM [11, 16]: 10 to 20%; inhibition at 0.5 µM [11, 17]: 10 to 20%; inhibition at 0.01 µM [12, 16]: 5 to 10%; inhibition at 0.5 µM [12, 17]: 0 to 5%; inhibition at 0.01 µM [4, 16]: 20 to 30%; inhibition at 0.5 µM [4, 17]: 10 to 20%; inhibition at 0.01 µM [13, 16]: 0 to 5%; inhibition at 0.5 µM [13, 17]: 5 to 10%; inhibition at 0.01 µM [14, 16]: 5 to 10%; inhibition at 0.5 µM [14, 17]: 5 to 10%; inhibition at 0.01 µM [15, 16]: 5 to 10%; inhibition at 0.5 µM [15, 17]: 5 to 10% |
| Cc1ccc(Sc2ccccc2N2CCN(Cc3ccc4c(c3)C(=S)N(C3CCC(=O)NC3=O)C4)CC2)c(C)c1 (stereo not shown) [GT-05038, 3-(6-((4-(2-((2,4-dimethylphenyl)thio)phenyl)piperazin-1-yl)methyl)-1-thioxoisoindolin-2-yl)piperidine-2,6-dione] | B (80%< substrate protein remaining %≤ 100%) | A (0% ≤ substrate protein remaining % ≤ 80%) | A (0% ≤ substrate protein remaining % ≤ 80%) | A (0% ≤ substrate protein remaining % ≤ 80%) | B (80%< substrate protein remaining %≤ 100%) | A (0% ≤ substrate protein remaining % ≤ 80%) | 500 to 1000 | 100 to 500 |  | 500 to 1000 | 500 to 1000 |  |  |  |
